Patent US20230330060A1, “COMPOUNDS FOR TREATMENT OF HEART FAILURE” (Sulfateq B.V., priority 2020, published 2023)

How the values were obtained:
[1] = system: doxorubicin-induced heart failure; experiment: Cardiac function assessment by PV-loop analysis in rats with doxorubicin-induced heart failure; format: in vivo, rat; details: for ESP (End-systolic pressure): doxorubicin 2 mg/kg weekly i.p. x9, mean±S.D.; for ESP (End-systolic pressure) / Contractility efficiency / EDP (end-diastolic pressure) / EDV (end-diastolic volume) / ESV (end-systolic volume) / Ea (Arterial elastance) / Ees (ESPVR) end-systolic elastance / Emax (EDPVR) maximal elastance / PRSW (preload recruitable stroke work) / SV (stroke volume) / Tau (time constant of LV pressure decay) / dP/dTmax / dP/dTmin: 12 weeks; for Contractility efficiency / EDP (end-diastolic pressure) / EDV (end-diastolic volume) / ESV (end-systolic volume) / Ea (Arterial elastance) / Ees (ESPVR) end-systolic elastance / Emax (EDPVR) maximal elastance / PRSW (preload recruitable stroke work) / SV (stroke volume) / Tau (time constant of LV pressure decay) / dP/dTmax / dP/dTmin / Cardiac function (heart rate, ejection fraction, stroke work, cardiac output), FIG. 1: doxorubicin rats; for Contractility efficiency / EDP (end-diastolic pressure) / EDV (end-diastolic volume) / ESV (end-systolic volume) / Ea (Arterial elastance) / Ees (ESPVR) end-systolic elastance / Emax (EDPVR) maximal elastance / PRSW (preload recruitable stroke work) / SV (stroke volume) / Tau (time constant of LV pressure decay) / dP/dTmax / dP/dTmin: SUL-150 diet; for Cardiac function (heart rate, ejection fraction, stroke work, cardiac output), FIG. 1: p<0.05 vs doxorubicin group
Description: The effectiveness of the compounds according to the invention for treatment or prophylaxis of HFrEF was tested in vivo in rats. Doxorubicin, an anthracycline antibiotic used in cancer chemotherapy, was employed to induce heart failure with reduced ejection fraction in preclinical rat models (Christiansen et al. (2006) Eur. J. Cardiothorac. Surg. 30:611-616; Ertunc et al. (2009) Pharmacology 84:240-248; Hayward et al. (2007) J. Am. Ass. Lab. Animal Sci. 46:20-32). […] The SUL-150 solution was sprayed homogeneously over standard food pellets (1.25 kg). […] Food pellets were freshly prepared weekly. With the approximation of 200 mg/kg SUL-150 in the food pellets and a daily dietary intake of 25 gram for a 350 gram rat, daily dosing of SUL-150 approximates 5 mg per day. Male outbred Wistar rats of 250-300 grams (10-12 weeks old) were kept on a 12h light/dark cycle and received a standard diet with distilled water ad libitum. Thirty rats were administered with doxorubicin (2 mg/kg) weekly via intraperitoneal injection for 9 consecutive weeks and were left either untreated (standard chow diet, 10 rats), or received a diet supplemented with SUL-150 as prophylaxis (prior to the 1st doxorubicin administration, 10 rats) or therapy (starting after the 6th doxorubicin administration, 10 rats). Sham control rats (8 rats) were administered with saline weekly via intraperitoneal injection for 9 consecutive weeks and received a standard diet. All rats were subjected to cardiac function assessment 12 weeks after the first doxorubicin administration. Cardiac function tests (PV-Loop assessment) were performed under anaesthesia (isoflurane in O2 (FiO2 100%)) followed by orotracheal intubation. The rats were placed in a mechanical rodent ventilator (Harvard Apparatus, Holliston, Massachusetts) with tidal volume of 10 mL/kg and 70 breaths per minute. A small window was opened below the sternum and with a small incision a 2F microtip pressure-conductance catheter (SPR-838; Millar Instruments, Houston, Tx) was inserted directly on the left ventricle (LV) through the apex. After stabilization, signals were recorded with a pressure-volume conductance System ([…]-Ultra, Millar Instruments, Houston, Tx) connected to a data acquisition system (PowerLab, AD Instruments, Colorado Springs, Co). […] Volume calibration was performed with fresh heparinized warm blood from each animal. Also, […] of 7.5% hypertonic saline was injected at the end of each experiment for the parallel conductance volume calibration. Data is analysed in GraphPad Prism 8.0 (GraphPad Software Inc, Ca). All results are expressed as mean±S.D. (standard deviation) or median and interquartile interval. The difference between groups was assessed by ANOVA followed by pairwise comparisons to the sham and vehicle treatment groups with p-values adjusted for multiple comparisons using FDR correction.

[2] = system: doxorubicin-induced heart failure; experiment: Cardiac fibrosis (picrosirius red, left-ventricular interstitial fibrosis); format: in vivo, rat; details: doxorubicin rats; SUL-150 via food pellets, prophylaxis or therapeutic group
Description: The SUL-150 solution was sprayed homogeneously over standard food pellets (1.25 kg). […] Food pellets were freshly prepared weekly. With the approximation of 200 mg·kg^-1 SUL-150 in the food pellets and a daily dietary intake of 25 gram for a 350 gram rat, daily dosing of SUL-150 approximates 5 mg·day^-1. Male outbred Wistar rats of 250-300 grams (10-12 weeks old) were kept on a 12 h light/dark cycle and received a standard diet with distilled water ad libitum. Thirty rats were administered with doxorubicin (2 mg·kg^-1) weekly via intraperitoneal injection for 9 consecutive weeks and were left either untreated (standard chow diet, 10 rats), or received a diet supplemented with SUL-150 as prophylaxis (prior to the 1st doxorubicin administration, 10 rats) or therapy (starting after the 6th doxorubicin administration, 10 rats). Sham control rats (8 rats) were administered with saline weekly via intraperitoneal injection for 9 consecutive weeks and received a standard diet. All rats were subjected to cardiac function assessment 12 weeks after the first doxorubicin administration. […] Samples were imaged on a NanoZoomer S60 Digital slide scanner (Hammamatsu Photonics) and left-ventricular interstitial fibrosis (i.e. non-perivascular fibrosis) was quantified using Aperio ImageScope (Leica Biosystems, Nussloch, Germany).

[3] = therapeutic (after 6th doxorubicin)

Cc1c(C)c2c(c(C)c1O)CC[C@](C)(C(=O)N1CCNCC1)O2 [SUL-150, (R)-(6-hydroxy-2,5,7,8-tetramethylchroman-2-yl)(piperazin-1-yl)methanone]
ESP (End-systolic pressure) ([1]; SUL-150 in diet (approx. 5 mg per day) as prophylaxis, prior to 1st doxorubicin): 104.4 ± 12.3 mmHg | ESP (End-systolic pressure) ([1]; SUL-150 in diet (approx. 5 mg per day) as therapy, after 6th doxorubicin): 114.3 ± 18.4 mmHg | Contractility efficiency ([1]; prophylaxis): 53.0 ± 16.4 % | EDP (end-diastolic pressure) ([1]; prophylaxis): 8.1 ± 3.0 mmHg | EDV (end-diastolic volume) ([1]; prophylaxis): 325.0 ± 144^ μl | ESV (end-systolic volume) ([1]; prophylaxis): 175.3 ± 107^ μl | Ea (Arterial elastance) ([1]; prophylaxis): 0.7 ± 0.2 mmHg · μl−1 | Ees (ESPVR) end-systolic elastance ([1]; prophylaxis): 0.7 ± 0.6 mmHg · μl−1 | Emax (EDPVR) maximal elastance ([1]; prophylaxis): 0.04 ± 0.03 mmHg · μl−1 | PRSW (preload recruitable stroke work) ([1]; prophylaxis): 9.9 ± 4.0 mmHg · ml−1 | SV (stroke volume) ([1]; prophylaxis): 149.7 ± 55.† μl | Tau (time constant of LV pressure decay) ([1]; prophylaxis): 12.5 ± 3.1 | dP/dTmax ([1]; prophylaxis): 6144 ± 1782 mmHg · s−1 | dP/dTmin ([1]; prophylaxis): −5006 ± 1140 mmHg · s−1 | Contractility efficiency [1, 3]: 47.1 ± 18.1 % | EDP (end-diastolic pressure) [1, 3]: 7.4 ± 3.7 mmHg | EDV (end-diastolic volume) [1, 3]: 363.1 ± 115^ μl | ESV (end-systolic volume) [1, 3]: 205.0 ± 96.4 µL | Ea (Arterial elastance) [1, 3]: 0.7 ± 0.2 mmHg · μl−1 | Ees (ESPVR) end-systolic elastance [1, 3]: 0.5 ± 0.4 mmHg · μl−1 | Emax (EDPVR) maximal elastance [1, 3]: 0.03 ± 0.02 mmHg · μl−1 | PRSW (preload recruitable stroke work) [1, 3]: 11.0 ± 3.9 mmHg · ml−1 | SV (stroke volume) [1, 3]: 158.1 ± 55.† μl | Tau (time constant of LV pressure decay) [1, 3]: 13.6 ± 5.2 | dP/dTmax [1, 3]: 6487 ± 1665 mmHg · s−1 | dP/dTmin [1, 3]: −5092 ± 1447 mmHg · s−1 | Cardiac function (heart rate, ejection fraction, stroke work, cardiac output), FIG. 1 ([1]; SUL-150 via food pellets after 6 cumulative doxorubicin administrations (therapeutic group)): substantially improves the cardiac function | Cardiac function (heart rate, ejection fraction, stroke work, cardiac output), FIG. 1 ([1]; SUL-150 via food pellets prior to doxorubicin (prophylaxis group)): substantially preserves cardiac function and largely maintains ejection fraction and cardiac output | Fibrogenic response in the left ventricle interstitium (collagen deposition), FIG. 4 [2]: blocks this fibrogenic reaction
